According to patent US20140179681A1, “METHODS AND COMPOSITIONS OF TARGETED DRUG DEVELOPMENT” (priority 2010, published 2014):
Structures can show the parent of a compound that is named as a salt. Where two headings read alike, the source gives them in different places.

Tests used:
[1] = system: epithelial carcinoma A431 cell line; assay: MTT Cell Proliferation Assay, A431 cells; type: cell-based; conditions: for MTT Assay IC50(A431/MDBK): ratio in parentheses: ratio MDBK IC50 / A431 IC50 (selectivity)
Summary of the method: (§1)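 Each concentration ran in quadruplicate across duplicate plates, with compounds serially diluted in DMSO and delivered at 0.5% DMSO in 0.5% FBS medium for 3 days.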

[2] = system: MDBK line; assay: MTT Cell Proliferation Assay, MDBK cells; type: cell-based, bovine
Summary of the method: as §1

[3] = biological target: T1, EGFR (Homo sapiens, UniProt P00533); assay: EGFR in-cell Western (ICW) screening protocol (EGFR inhibition assay); type: cell-based; set-up: ICW 1 / ICW 2 / ICW Avg: unit not given here; conditions: for ICW Avg / ICW 1 / ICW 2: ICW assay; for ICW Avg: average of runs 1 and 2; for ICW 1: run 1; for ICW 2: run 2; for ICW assay: Table 10
T1 construct: host or cells: A431
T1 sequence (P00533 25-1210): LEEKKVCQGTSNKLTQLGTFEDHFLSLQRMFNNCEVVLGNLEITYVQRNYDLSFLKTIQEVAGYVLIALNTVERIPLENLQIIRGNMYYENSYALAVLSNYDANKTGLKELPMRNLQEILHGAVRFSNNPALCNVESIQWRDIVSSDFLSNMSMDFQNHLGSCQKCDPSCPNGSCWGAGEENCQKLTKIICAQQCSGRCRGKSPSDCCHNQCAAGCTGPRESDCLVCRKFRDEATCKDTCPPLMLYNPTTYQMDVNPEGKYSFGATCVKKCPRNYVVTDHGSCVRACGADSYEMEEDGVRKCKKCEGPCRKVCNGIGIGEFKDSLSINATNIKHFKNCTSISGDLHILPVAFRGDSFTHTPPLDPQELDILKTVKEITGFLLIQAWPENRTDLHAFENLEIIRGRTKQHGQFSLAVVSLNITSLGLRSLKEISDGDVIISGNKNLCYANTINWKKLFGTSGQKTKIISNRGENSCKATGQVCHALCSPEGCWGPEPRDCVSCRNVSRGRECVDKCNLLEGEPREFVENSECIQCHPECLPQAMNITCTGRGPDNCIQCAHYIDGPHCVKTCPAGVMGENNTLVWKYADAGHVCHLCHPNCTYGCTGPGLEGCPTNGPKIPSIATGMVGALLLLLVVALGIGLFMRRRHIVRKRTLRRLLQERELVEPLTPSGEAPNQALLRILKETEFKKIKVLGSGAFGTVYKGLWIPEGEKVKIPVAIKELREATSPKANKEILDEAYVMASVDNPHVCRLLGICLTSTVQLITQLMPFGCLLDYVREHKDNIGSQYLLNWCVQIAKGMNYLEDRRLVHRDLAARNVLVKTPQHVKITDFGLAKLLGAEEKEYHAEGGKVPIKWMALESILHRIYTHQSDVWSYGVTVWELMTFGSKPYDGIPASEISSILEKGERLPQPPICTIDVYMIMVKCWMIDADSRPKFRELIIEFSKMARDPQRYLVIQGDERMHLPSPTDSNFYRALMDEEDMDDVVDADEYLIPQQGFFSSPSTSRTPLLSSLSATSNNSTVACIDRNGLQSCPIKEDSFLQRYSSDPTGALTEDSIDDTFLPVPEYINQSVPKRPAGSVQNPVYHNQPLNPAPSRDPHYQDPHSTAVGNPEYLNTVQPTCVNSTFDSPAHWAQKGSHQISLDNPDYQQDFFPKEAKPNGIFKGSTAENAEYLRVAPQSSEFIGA
Summary of the method: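 In-cell Western read-out: fixed A431 cells were co-stained for total EGFR and phospho-EGFR (Tyr1173; some runs Tyr1045). Before fixation, cells were serum-starved for 2 h, exposed to compound for 4 h, then given EGF for 10 min, usually at 10 ng/ml final (6.6 or 12.5 ng/ml in some runs).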

[4] = A431 cells, first value of cell, read-out: MTT Assay IC50(A431/MDBK): A431
[5] = MDBK cells, second value of cell, read-out: MTT Assay IC50(A431/MDBK): MDBK
[6] = Homo sapiens, A-431, 72 h, Table 10, first of x/y(ratio): A431, three day treatment, unit not printed (doses in μM), read-out: MTT assay (first value)
[7] = Bos taurus, MDBK, 72 h, Table 10, second of x/y(ratio): MDBK, three day treatment, unit not printed (doses in μM), read-out: MTT assay (second value)
[8] = % Inhibition of EGF dependent EGFR phosphorylation in A431 cells, compound 125 μM in assay
[9] = Homo sapiens, A-431, A431 cells, first value of cell, read-out: MTT Assay IC50(A431/MDBK): A431
[10] = Bos taurus, MDBK, MDBK cells, second value of cell, read-out: MTT Assay IC50(A431/MDBK): MDBK
[11] = Homo sapiens, A-431, first value of 'a/b (c)', taken as A431 cells, read-out: MTT Screen, first value of cell
[12] = Bos taurus, MDBK, second value of 'a/b (c)', taken as MDBK cells, read-out: MTT Screen, second value of cell
[13] = first value of 'a/b (c)', taken as A431 cells, read-out: MTT Screen, first value of cell
[14] = second value of 'a/b (c)', taken as MDBK cells, read-out: MTT Screen, second value of cell

Structure (SMILES) | MTT Assay IC50(A431/MDBK): ratio in parentheses [1] | ICW Avg [3] | ICW 1 [3] | ICW 2 [3] | IC50 [1, 9] [µM] | IC50 [2, 10] [µM] | further results
Cc1cc(C)nc(Nc2nc(-c3ccccc3)c3ccc(Cl)cc3n2)n1 [compound 12636] | 2.18 | 49.02 | 49.55 | 48.49 | – | – | IC50 [1, 4]: 15.9 µM; IC50 [2, 5]: 34.6 µM
O=S(=O)(Nc1ccc(Cl)cc1)c1ccc(NC(=S)Nc2ccccc2C(F)(F)F)cc1 [AD4-12435] | – | – | – | – | – | – | IC50 [1, 6]: 6.67 µM; IC50 [2, 7]: 6.15 µM; ICW assay [3, 8]: 41.4281
O=c1cc(C(F)(F)F)[nH]c(Nc2nc(-c3ccccc3)c3cc(Cl)ccc3n2)n1 [11759 + TFA] | 0.52 | 32.41 | 38.43 | 26.39 | 14.2 | 7.36 | –
COc1cc(NC(=S)Nc2ccc(S(=O)(=O)Nc3cc(Cl)cc(Cl)c3)cc2)cc(OC)c1 [AD4-12482] | – | – | – | – | – | – | IC50 [1, 6]: 6.54 µM; IC50 [2, 7]: 6.05 µM; ICW assay [3, 8]: 28.3382
O=c1cc(CN2CCN(Cc3ccc4c(c3)OCO4)CC2)c2cc(Cl)c(O)cc2o1 [AD4-10618] | – | – | – | – | – | – | IC50 ([1]; Homo sapiens, A-431, 72 h, Table 11, first of x/y(ratio): A431, unit not printed (doses in μM), read-out: MTT Screen (first value)): 18.4 µM; MTT Screen (second value) ([2]; Table 11, second of x/y(ratio): MDBK, unit not printed (doses in μM)): non-convergent; ICW Screen ([3]; Table 11, % Inhibition of EGF dependent EGFR phosphorylation in A431 cells, compound 125 μM in assay): −3.062
COc1ccc2nc(Nc3nc(CSc4nnnn4-c4ccccc4)cc(=O)[nH]3)nc(C)c2c1 [compound 11448] | 3.27 | 43.72 | 50.06 | 37.38 | 3.45 | 11.8 | –
Cc1ccc(C2CC(=O)c3cnc(Nc4nc(C)c5cc(C)c(C)cc5n4)nc3C2)cc1 (centres unmarked) [11670 + TFA] | 1.80 | 25.27 | 34.91 | 15.63 | 13.5 | 24.3 | –
COc1ccc(NS(=O)(=O)c2ccc(NC(=S)NC(=O)COc3ccc(Cl)cc3C)cc2)cc1 [AD4-12196] | – | – | – | – | – | – | IC50 [1, 11]: 18 µM; IC50 [2, 12]: 36.8 µM; ICW Screen (ICW Inhibition) [3]: 34.379
CCc1ccc2nc(Nc3nc(-c4cccc(OC)c4)cc(=O)[nH]3)nc(C)c2c1 [compound 11503] | 2.83 | 32.21 | 25.88 | 38.53 | 6.71 | 19 | –
Cc1nc(Nc2nc(=O)cc(CSc3ccc(Cl)cc3)[nH]2)nc2ccccc12 [11445 + TFA] | 4.70 | 60.28 | 59.54 | 61.02 | – | 45.1 | IC50 [1, 4]: 9.61 µM
Cc1ccc2c(C)nc(Nc3nc(-c4ccccc4C)cc(=O)[nH]3)nc2c1 [compound 11511] | – | 82.50 | 77.05 | 87.95 | – | – | IC50 ([1]; Homo sapiens, A-431, follow-up MTT, A431 cells, first value, read-out: MTT Follow-up: A431): 1.26 µM; MTT Follow-up: ratio in parentheses ([1]; follow-up MTT, ratio MDBK/A431): 0.45; IC50 ([2]; Bos taurus, MDBK, follow-up MTT, MDBK cells, second value, read-out: MTT Follow-up: MDBK): 0.57 µM
CCc1c(C)nc(Nc2nc(C)c3cccc(OC)c3n2)[nH]c1=O [12738 + TFA] | 0.54 | 45.35 | 53.67 | 37.02 | – | – | IC50 [1, 4]: 45.4 µM; IC50 [2, 5]: 24.6 µM
CC(C)c1ccc(NC(=S)Nc2ccc(S(=O)(=O)Nc3cc(Cl)cc(Cl)c3)cc2)cc1 [AD4-12424] | – | – | – | – | – | – | IC50 [1, 6]: 4.08 µM; IC50 [2, 7]: 4.73 µM; ICW assay [3, 8]: 82.3761
Cc1ccc2c(C)nc(Nc3nc(CCC(C)C)cc(=O)[nH]3)nc2c1 [11783 + TFA] | 0.82 | 60.19 | 66.95 | 53.44 | 18.2 | 15 | –
COC(=O)c1sc2cc(NC(=S)Nc3ccc(S(=O)(=O)Nc4c(C)cc(C)cc4C)cc3)ccc2c1Cl [AD4-12560] | – | – | – | – | – | – | IC50 [1, 6]: 8.88 µM; IC50 [2, 7]: 5.23 µM; ICW assay [3, 8]: 42.3275
O=C(NC(=S)Nc1ccc(S(=O)(=O)NC2CCCCC2)cc1)C1CC1 [AD4-12171] | – | – | – | – | – | – | IC50 [1, 11]: 38.9 µM; IC50 [2, 12]: 37.1 µM; ICW Screen (ICW Inhibition) [3]: 37.375
Cc1ccc(NS(=O)(=O)c2ccc(NC(=S)NC(=O)C3CCC3)cc2)cc1C [AD4-11422] | – | – | – | – | – | – | IC50 [1, 13]: 29.5 µM; IC50 [2, 14]: 9.23 µM; ICW Screen (ICW Inhibition) [3]: 44.982
COc1ccc2nc(Nc3nc(C)c(Cc4cccc(Cl)c4)c(=O)[nH]3)nc(C)c2c1 [11742 + TFA] | – | 35.74 | 33.84 | 37.63 | 16.1 | – | MTT Assay IC50(A431/MDBK): MDBK ([2]; MDBK cells, second value of cell): non-convergent
Cc1cc(C)c2nc(Nc3nc(=O)c(C)c(C)[nH]3)nc(C)c2c1 [12645 + TFA] | 0.97 | 64.97 | 60.00 | 69.95 | 6.49 | 6.29 | –
CC(C)C(=O)NC(=S)Nc1ccc(S(=O)(=O)NC2CCCCC2)cc1 [AD4-11985] | – | – | – | – | – | – | IC50 [1, 11]: 62.5 µM; IC50 [2, 12]: 39.9 µM; ICW Screen (ICW Inhibition) [3]: 40.346
CCCCCC1C(=O)N=C(Nc2nc(C)c3ccc(CC)cc3n2)N=C1C (centres unmarked) [12214 + TFA] | 1.40 | 34.91 | 42.29 | 27.52 | 32.4 | 45.5 | –
CC1CCc2cc(F)ccc2N1S(=O)(=O)c1ccc(NC(=S)Nc2ccc(F)c(Cl)c2)cc1 (centres unmarked) [AD4-12836] | – | – | – | – | – | – | IC50 [1, 6]: 9.32 µM; IC50 [2, 7]: 8.43 µM; ICW assay [3, 8]: 46.1658
Cc1ccc(Cl)cc1NC(=S)Nc1ccc(S(=O)(=O)N2c3ccc(F)cc3CCC2C)cc1 (centres unmarked) [AD4-12829] | – | – | – | – | – | – | IC50 [1, 6]: 37 µM; IC50 [2, 7]: 37.3 µM; ICW assay [3, 8]: 46.4407
Cc1nc(Nc2nc(C)c3cccc(C)c3n2)[nH]c(=O)c1Cc1ccccc1 [12611 + TFA] | 1.00 | 45.72 | 52.69 | 38.76 | 5.32 | 5.31 | –
CCCc1cc(=O)[nH]c(Nc2nc(C)c3ccc(C)cc3n2)n1 [compound 12655] | 0.68 | 31.68 | 30.00 | 33.36 | – | – | IC50 [1, 4]: 11.6 µM; IC50 [2, 5]: 7.89 µM
O=C(NC(=S)Nc1ccc(S(=O)(=O)N2CCCCC2)cc1)C1CCC1 [AD4-11421] | – | – | – | – | – | – | IC50 [1, 11]: 41.5 µM; IC50 [2, 12]: 43.5 µM; ICW Screen (ICW Inhibition) [3]: 37.181
O=C(Cc1ccccc1)NC(=S)Nc1ccc(S(=O)(=O)Nc2ccccc2)cc1 [AD4-12074] | – | – | – | – | – | – | IC50 [1, 11]: 16.2 µM; IC50 [2, 14]: 32.3 µM; ICW Screen (ICW Inhibition) [3]: 29.545
COc1cc(NS(=O)(=O)c2ccc(NC(=S)NC(=O)/C=C/c3ccccc3)cc2)nc(OC)n1 [AD4-12262] | – | – | – | – | – | – | IC50 [1, 13]: 42.9 µM; IC50 [2, 14]: 43.4 µM; ICW Screen (ICW Inhibition) [3]: 40.146
